In patent US11578061B2, “Inhibitors of LRRK2 kinase” (Halia Therapeutics, Inc., priority 2021, dated 2023) one finds IC50 data, which are given here for 32 compounds.

In this experiment the target is recombinant human LRRK2 (catalytic domain only [amino acids 970-2527], GST-tagged) (Homo sapiens (Human), UniProt Q5S007). In words: LRRK2 Enzymatic Assay. The format is biochemical. As to conditions: LRRKtide substrate, [32P]-ATP. An outline of the steps: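 GST-tagged catalytic domain (aa 970-2527) at 30 nM with 20 μM LRRKtide in HEPES pH 7.5/MgCl2 buffer, 1% DMSO; compounds (10 μM to 0.5 nM) preincubated 20 min, then [32P]-ATP added for 2 h at room temperature. P81 phosphocellulose capture; activity as % of vehicle, IC50 by curve fit.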
recombinant human LRRK2 (catalytic domain only [amino acids 970-2527], GST-tagged), sequence (Q5S007 970-2527): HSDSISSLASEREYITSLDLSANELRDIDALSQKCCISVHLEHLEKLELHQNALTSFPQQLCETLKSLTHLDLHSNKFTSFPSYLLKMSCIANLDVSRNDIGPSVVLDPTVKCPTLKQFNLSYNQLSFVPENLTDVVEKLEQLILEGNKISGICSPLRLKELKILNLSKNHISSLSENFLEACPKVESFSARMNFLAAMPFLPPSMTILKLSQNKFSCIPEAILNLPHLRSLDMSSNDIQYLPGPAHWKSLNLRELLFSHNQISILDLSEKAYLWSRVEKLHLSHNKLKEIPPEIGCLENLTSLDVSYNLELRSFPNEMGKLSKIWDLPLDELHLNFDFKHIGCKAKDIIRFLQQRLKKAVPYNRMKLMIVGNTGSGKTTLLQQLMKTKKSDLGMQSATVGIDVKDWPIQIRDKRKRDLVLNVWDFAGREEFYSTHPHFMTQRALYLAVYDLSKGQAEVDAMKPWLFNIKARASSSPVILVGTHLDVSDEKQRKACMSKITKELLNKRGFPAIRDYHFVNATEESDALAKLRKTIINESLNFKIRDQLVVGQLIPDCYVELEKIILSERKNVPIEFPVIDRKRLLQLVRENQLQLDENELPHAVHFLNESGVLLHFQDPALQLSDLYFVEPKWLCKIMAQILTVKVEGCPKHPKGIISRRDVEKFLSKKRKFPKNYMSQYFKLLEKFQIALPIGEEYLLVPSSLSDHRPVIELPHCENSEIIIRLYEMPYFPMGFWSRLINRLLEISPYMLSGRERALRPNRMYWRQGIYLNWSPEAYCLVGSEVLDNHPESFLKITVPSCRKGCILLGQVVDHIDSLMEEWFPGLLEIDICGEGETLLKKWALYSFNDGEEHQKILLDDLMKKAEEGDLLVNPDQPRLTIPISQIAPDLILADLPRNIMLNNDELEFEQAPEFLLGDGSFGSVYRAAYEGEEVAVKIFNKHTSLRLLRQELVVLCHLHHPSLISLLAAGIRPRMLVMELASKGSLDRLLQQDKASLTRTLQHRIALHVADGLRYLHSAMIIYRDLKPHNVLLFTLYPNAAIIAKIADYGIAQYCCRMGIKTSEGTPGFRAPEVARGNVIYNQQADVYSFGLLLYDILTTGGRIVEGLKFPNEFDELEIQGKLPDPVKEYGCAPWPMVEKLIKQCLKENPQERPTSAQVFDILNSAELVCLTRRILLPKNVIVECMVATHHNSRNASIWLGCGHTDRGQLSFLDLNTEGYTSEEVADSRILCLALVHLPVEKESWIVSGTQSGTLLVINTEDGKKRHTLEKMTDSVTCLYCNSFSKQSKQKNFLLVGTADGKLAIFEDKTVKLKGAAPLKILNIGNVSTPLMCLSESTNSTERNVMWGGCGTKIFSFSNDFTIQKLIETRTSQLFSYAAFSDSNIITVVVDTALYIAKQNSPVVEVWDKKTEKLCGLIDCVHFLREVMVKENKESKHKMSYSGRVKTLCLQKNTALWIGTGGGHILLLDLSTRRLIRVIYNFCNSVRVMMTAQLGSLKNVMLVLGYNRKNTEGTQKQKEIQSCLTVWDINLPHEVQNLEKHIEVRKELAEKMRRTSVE
What is called IC50 is the point on the concentration scale where inhibition reaches its midpoint. As for `CC1(O)CCC(COc2nc(Nc3ccc(N4CCOCC4)cc3)ncc2F)CC1` (centres unmarked) [Example 251, 4-(((5-fluoro-2-((4-morpholinophenyl)amino)pyrimidin-4-yl)oxy)methyl)-1-methylcyclohexan-1-ol], the IC50 fell in the range of 50 to 200 nM. In the case of `CC(N[C@H]1CC[C@H](COc2nc(Nc3ccc(N4CCOCC4)cc3)ncc2F)CC1)C(F)(F)F` (stereo partly drawn) [Example 116, 5-fluoro-N-(4-morpholino-phenyl)-4-(((1R,4R)-4-((1,1,1-trifluoro-propan-2-yl)amino)cyclohexyl)methoxy) pyrimidin-2-amine] it was 200 to 400 nM; in that of `COC1CCC(COc2nc(Nc3cn(C(C)(C)C#N)nc3C)ncc2Cl)CC1` (centres unmarked) [Example 161, 2-(4-((5-chloro-4-((4-methoxycyclohexyl)methoxy)pyrimidin-2-yl)amino)-3-methyl-1H-pyrazol-1-yl)-2-methylpropanenitrile], less than 50 nM. Take `Cc1nn(C(C)(C)C#N)cc1Nc1nc(C)c(F)c(OC[C@H]2CC[C@H](O)CC2)n1` [Example 267, 2-(4-((5-fluoro-4-(((1R,4R)-4-hydroxycyclohexyl)methoxy)-6-methylpyrimidin-2-yl)amino)-3-methyl-1H-pyrazol-1-yl)-2-methylpropanenitrile]: the IC50 was greater than 400 nM. In the case of `Cc1nn(C(C)(C)C#N)cc1Nc1ncc(F)c(OCC2CS(=O)(=O)C2)n1` [Example 289, 2-(4-((4-((1,1-dioxidothietan-3-yl)methoxy)-5-fluoropyrimidin-2-yl)amino)-3-methyl-1H-pyrazol-1-yl)-2-methylpropanenitrile] it was greater than 400 nM; in that of `Cc1nn(C2CC(C#N)C2)cc1Nc1ncc(Cl)c(OCC2(F)CCNCC2)n1` (centres unmarked) [Example 21, 3-(4-((5-chloro-4-((4-fluoropiperidin-4-yl)methoxy)pyrimidin-2-yl)amino)-3-methyl-1H-pyrazol-1-yl)cyclobutane-1-carbonitrile], less than 50 nM. In the case of `CNC[C@H]1CC[C@H](COc2ccnc(Nc3ccc(N4CCOCC4)cc3)n2)CC1` [Example 48, 4-(((1R,4R)-4-((methylamino)methyl)cyclohexyl)methoxy)-N-(4-morpholinophenyl)py-rimidin-2-amine] it was 50 to 200 nM.

As to `FC(F)(F)CN[C@H]1CC[C@H](COc2ccnc(Nc3ccc(N4CCOCC4)cc3)n2)CC1` [Example 104, N-(4-morpholino-phenyl)-4-(((1R,4R)-4-((2,2,2-trifluoroethyl)amino)cyclohexyl)methoxy) pyrimidin-2-amine], the IC50 lay within 50 to 200 nM. In the case of `CN[C@H]1CC[C@H](COc2nc(Nc3ccc(N4CCOCC4)cc3)ncc2OC)CC1` [Example 35, 5-methoxy-4-(((1R,4R)-4-(methylamino)cyclo-hexyl)methoxy)-N-(4-morpholinophenyl) pyrimidin-2-amine] it was less than 50 nM. To `CCN1CCN(Cc2ccc(Nc3ncc(Cl)c(OCC4CCC(O)CC4)n3)nc2)CC1` (centres unmarked) [Example 131, 4-(((5-chloro-2-((5-((4-ethylpiperazin-1-yl)methyl)pyridin-2-yl)amino)pyrimidin-4-yl)oxy)methyl)cyclohexan-1-ol] belongs greater than 400 nM; to `NC[C@H]1CC[C@H](COc2ccnc(Nc3ccc(N4CCOCC4)cc3)n2)CC1` [Example 12, 4-(((1R,4R)-4-(aminomethyl)cyclohexyl)methoxy)-N-(4-morpholinophenyl) pyrimidin-2-amine], less than 50 nM; to `c1cc(OCC2CCNCC2)nc(Nc2ccc(N3CCOCC3)cc2)n1` [Example 17, N-(4-morpholinophenyl)-4-(piperidin-4-ylmethoxy)pyrimidin-2-amine], 200 to 400 nM. In the case of `Cc1nn(C(C)(C)C#N)cc1Nc1nccc(OCC2(F)CCNCC2)n1` [Example 19, 2-(4-((4-((4-fluoropiperidin-4-yl)methoxy)pyrimidin-2-yl)amino)-3-methyl-1H-pyrazol-1-yl)-2-methylpropanenitrile] it was 200 to 400 nM; in that of `COc1cnc(Nc2ccc(N3CCOCC3)cc2)nc1OC[C@H]1CC[C@H](N)CC1` [Example 8, 4-(((1R,4R)-4-aminocyclohexyl)methoxy)-5-methoxy-N-(4-morpholinophenyl) pyrimidin-2-amine], less than 50 nM.

As to `O[C@H]1CC[C@H](COc2nc(Nc3cnn(CCF)c3)ncc2F)CC1` [Example 224, (1R,4R)-4-(((5-fluoro-2-((1-(2-fluoroethyl)-1H-pyrazol-4-yl)amino)pyrimidin-4-yl)oxy)methyl)cyclohexan-1-ol], the IC50 was less than 50 nM. In the case of `CC(=O)N1CCC(COc2nc(Nc3ccc(N4CCOCC4)cc3)ncc2F)C(F)C1` (single isomer, unassigned) [Example 173, 1-(3-fluoro-4-(((5-fluoro-2-((4-morpholinophenyl)amino)pyrimidin-4-yl)oxy)methyl)piper-idin-1-yl)ethan-1-one] it was less than 50 nM; in that of `N[C@H]1CC[C@@H](COc2nc(Nc3ccc(N4CCOCC4)cc3)ncc2Cl)C1` [Example 16, 4-(((1R,3S)-3-aminocyclopentyl)methoxy)-5-chloro-N-(4-morpholinophenyl) pyrimidin-2-amine], less than 50 nM; in that of `Cc1nn(C(C)(C)C#N)cc1Nc1ncc(F)c(OCC2CCC(O)(C(F)(F)F)CC2)n1` (centres unmarked) [Example 262, 2-(4-((5-fluoro-4-((4-hydroxy-4-(trifluoromethyl)cyclohexyl)methoxy)pyrimidin-2-yl)amino)-3-methyl-1H-pyrazol-1-yl)-2-methylpropanenitrile], 50 to 200 nM. For `O[C@H]1CC[C@H](COc2nc(Nc3cnn(C4CCOCC4)c3C3CC3)ncc2F)CC1` [Example 236, (1R,4R)-4-(((2-((5-cyclopropyl-1-(tetrahydro-2H-pyran-4-yl)-1H-pyrazol-4-yl)amino)-5-fluoropyrimidin-4-yl)oxy)methyl)cyclohexan-1-ol], the IC50 is less than 50 nM. To `O=C(N[C@H]1CC[C@H](COc2nc(Nc3ccc(N4C5CCC4COC5)cc3)ncc2F)CC1)C(F)(F)F` [Example 209, N-((1R,4R)-4-(((2-((4-(3-oxa-8-aza-bicyclo[3.2.1]octan-8-yl)phenyl)amino)-5-fluoro-pyrimidin-4-yl)oxy)methyl)cyclohexyl)-2,2,2-trifluoro-acetamide] belongs less than 50 nM; to `Cc1nn(C(C)(C)C#N)cc1Nc1ncc(Cl)c(OCC2(F)CCN(C)CC2)n1` [Example 61, 2-(4-((5-chloro-4-((4-fluoro-1-methylpiperidin-4-yl)methoxy)pyrimidin-2-yl)amino)-3-methyl-1H-pyrazol-1-yl)-2-methylpropanenitrile], less than 50 nM; to `CC(=O)N[C@H]1CC[C@H](COc2nc(Nc3cnn(C(C)(C)C#N)c3)ncc2F)CC1` [Example 186, N-((1R,4R)-4-(((2-((1-(2-cyanopropan-2-yl)-1H-pyrazol-4-yl)amino)-5-fluoropyrimidin-4-yl)oxy)methyl)cyclo-hexyl)acetamide], less than 50 nM. In the case of `Cc1nn(C(C)(C)C#N)cc1Nc1ncc(F)c(OCC23CCC(O)(CC2)CC3)n1` [Example 257, 2-(4-((5-fluoro-4-((4-hydroxybicyclo[2.2.2]octan-1-yl)methoxy)pyrimidin-2-yl)amino)-3-methyl-1H-pyrazol-1-yl)-2-methylpropanenitrile] it was 50 to 200 nM; in that of `CC(=O)N[C@H]1C[C@H](COc2nc(Nc3ccc(N4CCOCC4)cc3)ncc2F)C1` [Example 92, N-((1R,3R)-3-(((5-fluoro-2-((4-morpholinophenyl)amino)pyrimidin-4-yl)oxy)methyl)cyclo-butyl)acetamide], 200 to 400 nM; in that of `OCC1CCC(COc2ccnc(Nc3ccc(N4CCOCC4)cc3)n2)CC1` (centres unmarked) [Example 139, (4-(((2-((4-morpholinophenyl)amino)pyrimidin-4-yl)oxy)methyl)cyclohexyl)methanol22], 50 to 200 nM. In the case of `COc1cnc(Nc2ccc(N3CCOCC3)cc2)nc1OC[C@H]1CC[C@H](NCC(F)(F)F)CC1` [Example 105, 5-methoxy-N-(4-morpholino-phenyl)-4-(((1R,4R)-4-((2,2,2-trifluoroethyl)amino)cyclohexyl)methoxy) pyrimidin-2-amine] it was 50 to 200 nM.

Turning to `Cc1nn(C(C)(C)C#N)cc1Nc1ncc(Cl)c(OCC2CCC(NC3CC(F)(F)C3)CC2)n1` (centres unmarked) [Example 145, 2-(4-((5-chloro-4-((4-((3,3-difluorocyclobutyl)amino)cyclohexyl)methoxy)pyrimidin-2-yl)amino)-3-methyl-1H-pyrazol-1-yl)-2-methylpropanenitrile], the IC50 is less than 50 nM. As to `CC(C)n1cc(Nc2ncc(F)c(OC[C@H]3CC[C@H](O)CC3)n2)cn1` [Example 218, (1R,4R)-4-(((5-fluoro-2-((1-isopropyl-1H-pyrazol-4-yl)amino)pyrimidin-4-yl)oxy)methyl)cyclohexan-1-ol], the IC50 is 50 to 200 nM. To `CNC[C@H]1CC[C@H](COc2nc(Nc3ccc(N4CCOCC4)cc3)ncc2Cl)CC1` [Example 49, 5-chloro-4-(((1R,4R)-4-((methylamino)methyl)cyclohexyl)methoxy)-N-(4-morpholinophenyl)py-rimidin-2-amine] belongs less than 50 nM; to `Cc1nn(C(C)(C)C#N)cc1Nc1ncc(F)c(OC[C@H]2CC[C@H](O)CC2)n1` [Example 125, 2-(4-((5-fluoro-4-(((1R,4R)-4-hydroxycyclohexyl)methoxy)pyrimidin-2-yl)amino)-3-methyl-1H-pyrazol-1-yl)-2-methylpropanenitrile], less than 50 nM; to `N[C@H]1CC[C@@H](COc2ccnc(Nc3ccc(N4CCOCC4)cc3)n2)C1` [Example 15, 4-(((1R,3S)-3-aminocyclopentyl)methoxy)-N-(4-morpholinophenyl) pyrimidin-2-amine], 50 to 200 nM. As to `CC(=O)N[C@H]1CC[C@H](COc2ccnc(Nc3cn(C4CC(C#N)C4)nc3C)n2)CC1` (stereo partly drawn) [Example 75, N-((1R,4R)-4-(((2-((1-(3-cyanocyclobutyl)-3-methyl-1H-pyrazol-4-yl)amino)pyrimidin-4-yl)oxy)methyl)cyclo-hexyl)acetamide], the IC50 was greater than 400 nM.
